One experiment concerns E. coli Lon. Particulars: cited from earlier work.
Experiment [1] concerns Lon. Particulars: ratio of normalized cleavage rates at 25 μM substrate.
Experiment [2] deals with Lon (Escherichia coli, UniProt P0A9M0). Description: biochemical. Particulars: for inhibition of recombinant Lon: with varied pre-incubation time. Format: biochemical, E. coli.
For experiment [3], the system named is E. coli. The experiment can be described thus: E. coli exponential growth rate. Particulars: 100 μM compound. Format: cell-based, Escherichia coli.
For experiment [4], the system named is RAW 264.7 murine macrophages. Description: cells. Format: cell-based. The note with it: Mus musculus, RAW264.7, 24 h, read-out: EC50 (cell killing).
In experiment [5] the test system is E. coli. Description: Ciprofloxacin persister cell quantification. The class given is cell-based, Escherichia coli.
The target in the next experiment is h20S (β5) (Homo sapiens, UniProt P28074). The experiment can be described thus: h20S β5 subunit inhibition assay. Format: biochemical.
The test system of experiment [6] is E. coli. Description: UV-induced filamentation of E. coli. Format: cell-based, Escherichia coli.
Experiment [7] deals with E. coli. The experiment can be described thus: Ciprofloxacin MIC measurement. Format: cell-based, Escherichia coli. The note with it: wild-type cells, 100 μm 11.
The target in the next experiment is h20S (β2) (Homo sapiens, UniProt Q99436). The experiment can be described thus: h20S β2 subunit inhibition assay. Format: biochemical. Particulars: 60 min enzyme-inhibitor pre-incubation; mean ± SD, n=3.
The target of another experiment is h20S (β1) (Homo sapiens, UniProt P28072). The experiment can be described thus: h20S β1 subunit inhibition assay. The class given is biochemical.
Where [8] appears, read: 60 min enzyme-inhibitor pre-incubation, mean ± SD, n=3.

One may read the IC50 as the concentration that gives 50% inhibition. Higher therefore signals weaker potency in that assay. Broadly, the EC50 is the concentration needed to bring the measured effect to its halfway point.

Sequence of Lon (Escherichia coli, UniProt P0A9M0) (P0A9M0 whole entry): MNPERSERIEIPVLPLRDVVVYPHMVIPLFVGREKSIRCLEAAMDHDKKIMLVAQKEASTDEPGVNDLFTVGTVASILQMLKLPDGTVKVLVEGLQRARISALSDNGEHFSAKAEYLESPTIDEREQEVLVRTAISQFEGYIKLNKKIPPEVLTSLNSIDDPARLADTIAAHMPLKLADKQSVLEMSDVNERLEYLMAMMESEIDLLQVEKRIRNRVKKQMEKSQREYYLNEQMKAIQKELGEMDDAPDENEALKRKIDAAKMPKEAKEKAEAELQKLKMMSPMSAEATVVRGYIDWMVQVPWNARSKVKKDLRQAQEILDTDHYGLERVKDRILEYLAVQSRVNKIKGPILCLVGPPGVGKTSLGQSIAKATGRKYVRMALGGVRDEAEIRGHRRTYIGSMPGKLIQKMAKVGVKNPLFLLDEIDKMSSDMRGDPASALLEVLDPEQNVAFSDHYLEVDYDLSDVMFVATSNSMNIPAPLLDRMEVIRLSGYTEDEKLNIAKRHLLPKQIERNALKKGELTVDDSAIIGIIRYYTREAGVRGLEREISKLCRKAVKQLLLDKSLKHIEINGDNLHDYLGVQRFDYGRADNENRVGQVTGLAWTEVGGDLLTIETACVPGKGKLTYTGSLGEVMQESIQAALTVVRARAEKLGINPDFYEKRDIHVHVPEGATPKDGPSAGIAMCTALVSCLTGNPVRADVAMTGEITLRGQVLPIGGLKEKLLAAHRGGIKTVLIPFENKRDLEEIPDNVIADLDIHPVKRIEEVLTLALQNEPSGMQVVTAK

For `CN(C)c1cccc2c(S(=O)(=O)F)cccc12` [dansyl fluoride], the “inhibition of E. coli Lon” value in the experiment on E. coli Lon is listed as “only at mM concentrations”.
Mo-Leu-Leu-Phe-ACC [compound 1]: the “selectivity of cleavage, Lon vs h20S” value with Lon [1] was “cleaved equally effectively by both Lon and the proteasome”.
As for `CC(C)C[C@H](NC(=O)[C@H](Cc1ccccc1)NC(=O)c1cnccn1)B(O)O` [BZ, bortezomib, reference compound], on Lon [2], half-maximal inhibition (IC50) was put at 500 ± 230 nM and the “inhibition of recombinant Lon” value was “potent, time-dependent inhibition”. The “effect on exponential growth rates” value in the experiment with E. coli [3] is reported as “nor treatment with 100 μM 11 or BZ had an effect”. In [4], the EC50 is 160 nM.
`CC(C)C[C@H](NC(=O)[C@H](CC(C)(C)C)NC(=O)[C@H](CCCCNC(=N)N)NC(=O)c1cnccn1)B(O)O` [compound 11, Pyz-hArg-nptGly-Leu-B(OH)2]: the “time course of killing” value in the experiment on E. coli [5] (co-treatment with ciprofloxacin and 100 μM 11) is given as “faster death than wild type”. Also, the “fraction of cells that tolerated ciprofloxacin” value in the experiment on E. coli [5] (sulA mutant strain) was “this effect was abrogated”; in the experiment on E. coli [5] (wild-type cells, co-treatment with 10 μg/mL ciprofloxacin, LB and M9 media) it was “statistically-significant reduction”. In addition, the “Relative activity (ratio of BZ IC50 to 11 IC50)” value is 1.2 at Lon [2] (Lon), 0.1 on h20S (β5) (h20S β5) and 0.2 on h20S (β1) (h20S β1). In addition, on Lon [2] (time-dependent inhibition of Lon), the “kinact/KI relative to BZ” value is listed as “two-fold higher”. Further, the “inhibition of recombinant Lon” value on Lon [2] is on record as “potent, time-dependent inhibition”. Moreover, the IC50 against h20S (β5) (setting [8]) was determined as 290 ± 6.4 nM; against h20S (β2) it was 430 ± 40 nM; against h20S (β1) (setting [8]), 1900 ± 140 nM. The “filamentation after UV stress” value in the experiment with E. coli [6] (sulA mutant strain) was “no effect on filamentation”; in the experiment on E. coli [6] (wild-type, treatment during 6 h outgrowth following UV-stress) it was “dose-dependent increase in filamentation”. The “effect on MIC of ciprofloxacin” value in the experiment with E. coli [7] is “nor treatment of wild-type cells with 100 μm 11 altered the overall MIC”. For the same compound, in the experiment with E. coli [3], the “effect on exponential growth rates” value is given as “nor treatment with 100 μM 11 or BZ had an effect”.
